Experimental data taken from patent US20200182861A1, “METHOD FOR DIFFERENTIATION OF PLURIPOTENT STEM CELLS INTO VASCULAR BED CELLS” (Hoffmann-La Roche Inc., priority 2011, published 2020).

Columns and labels:
[1] = system: HL60 cells with SC-derived ECs; assay: Leukocyte-endothelial adhesion assay; type: cell-based, human; settings: SC-derived ECs stimulated, 1 nM
Method: FIG. 16: Leukocyte-endothelial adhesion assay. Activated endothelial cells present adhesion molecules for the recruitment leukocytes. The response to 1 nM TNFα was studied by co-cultivating Calcein-stained HL60 cells with SC-derived ECs. Adhesion of HL60 cells to endothelial cells was quantified by measuring the fluorescence intensity.
2×10^4 Stem Cell-derived endothelial cells/well were seeded onto 96-well plates and cultured for 2 days in EGM-2 medium (Lonza) until confluence. Media was changed with EGM-2 medium supplemented with 1 nM TNFα (R&D Systems). SC-derived ECs were TNFα-stimulated for 4 hours. Thereafter 1.5×10^5 Calcein-labeled HL60 cells were added to each 96 well. After an incubation of one hour medium was removed and Sc-ECs were PBS-washed. Lyse the plate with 1% NP-40 detergent solution for 15 minutes. Supernatants were transferred into optiplates and fluorescence measured in a microplate reader.
To determine whether the differentiation system generates bona fide ECs, we challenged the SC-derived ECs with proinflammatory cytokines and analyzed for an activated expression of effectors of immune cell migration. […] We further confirmed by flow cytometry the presence of ICAM1 and E-SELECTIN upon TNF-α as well as […] stimulation (FIG. 16). HLA-ABC expression served as control to analyze a general und cell type unspecific response to proinflammatory cytokines. […]

E-SELECTIN = assay: Pro-inflammatory cytokine response assay, cell-based ELISA; set-up: species or system human; settings: 1 nM, SC-derived ECs
Method: FIG. 15B: Pro-inflammatory cytokine response assay. SC-derived ECs upregulate the expression of the adhesion molecule E-SELECTIN upon pro-inflammatory cytokine administration. Cell-based ELISA was used to measure the activation of SC-derived endothelial cells in response to 1 nM TNFα.
(§1) 20 000 Stem Cell-derived endothelial cells/well were seeded onto 96-well plates and cultured for 2 days in EGM-2 medium (Lonza) until confluence. Media was changed with EGM-2 medium supplemented with 1 nM TNFα (R&D Systems). After an incubation of 24 hours SC-derived ECs were briefly PBS-washed and PFA-fixed Primary antibodies for human anti-ICAM and anti-E-Selectin were purchased from R&D Systems. An anti-mouseIgG/biotinylated (Amersham) as secondary antibody and a Streptavidin/Peroxidase complex (Amersham) were used. Luminescence was quantified in a microplate reader.

ICAM1 = assay: as above; set-up: species or system human; settings: 1 nM, SC-derived ECs
Method: FIG. 15A: Pro-inflammatory cytokine response assay. SC-derived ECs upregulate the expression of the adhesion molecule ICAM1 upon pro-inflammatory cytokine administration. Cell-based ELISA was used to measure the activation of SC-derived endothelial cells in response to 1 nM TNFα.
as §1

Substance: TNFα
- adhesion / recruitment of HL60 leukocytes [1]: significantly enhanced
- E-SELECTIN expression (E-SELECTIN): significantly upregulated
- ICAM1 expression (ICAM1): significantly upregulated
